Reference: patent publication US11440923B2, “Substituted macrocyclic indole derivatives” (Bayer Aktiengesellschaft, priority 2017, dated 2022)
Where a name gives a salt, the structure may show the parent alone. Read-outs that look alike come from different tables or passages of the source.

How the values were obtained:
MCL-1 = MCL-1 (Homo sapiens (Human), UniProt Q07820, K194A/K197A/R201A); assay: Protein-compound interaction assay (SPR assay, Assay 9); assay type: binding; conditions: for Kd: KD (geometric mean), SPR, 25° C.; for koff: read-out: koff (geometric mean), SPR, 25° C.; for kon: read-out: kon (geometric mean), SPR, 25° C.
Sequence of MCL-1 (Q07820 whole entry K194A/K197A/R201A, looked up): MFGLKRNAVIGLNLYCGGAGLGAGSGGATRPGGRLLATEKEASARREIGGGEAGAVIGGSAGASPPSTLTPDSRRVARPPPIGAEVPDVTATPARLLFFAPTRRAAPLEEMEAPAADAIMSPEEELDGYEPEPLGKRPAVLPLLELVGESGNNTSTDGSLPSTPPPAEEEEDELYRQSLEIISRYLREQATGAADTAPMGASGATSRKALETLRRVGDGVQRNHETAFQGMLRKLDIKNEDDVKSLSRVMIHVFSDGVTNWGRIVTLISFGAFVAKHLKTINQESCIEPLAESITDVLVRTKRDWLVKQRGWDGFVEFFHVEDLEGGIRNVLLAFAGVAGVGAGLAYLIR
Source text: Assay 9 Protein-Compound Interaction Assay (SPR Assay)
The ability of the compounds described in this invention to bind to MCL-1 may be determined using surface plasmon resonance (SPR). This allows for the quantification of binding in terms of the equilibrium dissociation constant (KD [M]), as well as association and dissociation rate constants (kon [1/Ms] and koff [1/s], respectively). The measurements may be performed using Biacore® T200 or Biacore® S200 instruments (GE Healthcare).
Briefly, carboxymethylated dextran biosensor chips (Series S Sensor Chip CMS, GE Healthcare) were activated with 1-ethyl-3-(3-dimethylaminopropyl)-carbodiimide hydrochloride (EDC) and N-hydroxysuccinimide (NHS) according to the supplier's instructions. MBP-MCL-1 was diluted in 1×PBS-P+ (GE Healthcare) and injected on the activated chip surface. Subsequently, a solution of 1 M ethanolamine-HCl (GE Healthcare) was injected to block unreacted groups, resulting in approximately 400-2500 response units (RU) of immobilized protein. A reference surface was generated by treatment with NHS-EDC and ethanolamine-HCl. […] Compounds were injected for 60 s followed by a dissociation time of up to 1000 s.
The double-referenced sensorgrams were fit to a simple reversible Langmuir 1:1 reaction mechanism as implemented in the Biacore® T200 and S200 evaluation software (T200 evaluation software version 2.0 and S200 evaluation software version 1.0, GE Healthcare).

[1] = target: MCL1 protein / biotinylated BIM BH3 peptide in RKO cells (Homo sapiens (Human), UniProt Q07820); assay: PIxEL: protein-protein interaction in permeabilized cells by ELISA (Assay 5); assay type: cell-based; conditions: PIxEL IC50 (median)
Sequence of MCL1 protein / biotinylated BIM BH3 peptide in RKO cells (Q07820 whole entry): as the sequence (Q07820 whole entry K194A/K197A/R201A, looked up) above, with A194K, A197K, A201R counted along it
Description: PIxEL: Protein-Protein Interaction in Permeabilized Cells by ELISA
Most MCL1 protein molecules are localized at the mitochondria outer membrane and sequester pro-apoptotic proteins through binding of their BCL2 homology domain 3 (BH3 domain). MEB buffer (150 mM mannitol, 10 mM HEPES pH 7.5, 50 mM KCl, 20 μM EDTA, 20 μM EGTA, 5 mM potassium succinate, 0.1% protease-free BSA (SIGMA) with low dose digitonin (0.002%) permeabilizes plasma membrane while leaves live mitochondria, where MCL1 maintains its native localization and conformation. Unlike biophysical assays (e.g. TR-FRET) that use truncated recombinant MCL1 protein, this assay uses full length endogenous MCL1 protein at mitochondria outer membrane. It measures the interaction between MCL1 protein and biotinylated BIM BH3 peptide. Compounds can compete with BIM BH3 peptide to bind to MCL1 protein.
On day 1, RKO colon cancer cell line cells were plated at 0.8 million cells/ml, 100 μl/well in 96-well flat bottom TC plates (Corning). MCL1 antibody (Santa Cruz sc-12756) were diluted at 200 fold (final concentration 1 μg/ml) in carbonate buffer (Thermo Fisher Scientific, pH 9.6), and 50 μl of diluted antibody was added to each well of high bind ELISA plates ([…]). Each plate was tapped to make sure liquid covering entire bottom of wells and incubate at 37° C. overnight.
On the second day, MCL1 antibody was washed from ELISA plate. 250 μl Odyssey® Blocking Buffer (PBS) (Li-Cor) was added to each well, incubated at room temperature for at least 1 hour, then washed once with 250 μl 1×PBST. Plates with RKO cells were gently washed once with 100 μl/well PBS, once with 100 μl/well MEB buffer without digitonin, then 100 μl of MEB buffer with 0.002% digitonin was gently added to each well. Compounds were added with HP Tecan compound dispenser in 3-fold dilution series, highest dose 30 μM, 10-dose per compound in quadruplicates. Biotin-BIM peptide (synthesized by 21st Century) was added with HP Tecan compound dispenser at 0.2 μM immediately after the addition of compounds. Plates were rocked for 1 hour at room temperature. Then MEB buffer was aspirated and 50 μl of CHAPS buffer (50 mM Tris-Cl, pH 7.4, 150 mM NaCl, 1% CHAPS, 1 mM EDTA, 1 mM EGTA, cOmplete protease inhibitors (Roche), PhosSTOP (Roche)) was added to each well. Plates were rocked for 1 hour at 4° C., then 45 μl cell lysate from each well were transferred to ELISA plates coated with MCL1 antibody. Plates were incubated overnight in the cold room with rocking.
On the third day, ELISA plates were washed once with 250 μl 1×PBST. Streptavidin-poly-HRP (Thermo Fisher Scientific) was diluted to 20 ng/ml in Odyssey blocking buffer plus 0.05% Triton-100, and 100 μl was added to each well of the ELISA plate. Plates were incubated at room temperature for 1 hour with rocking, then washed with 100 μl 1×PBST for 3 times. Each SuperSignal ELISA Femto Maximum Sensitivity substrate was added to a 50-ml tube and mixed, then 100 μl of mixed substrate was added to each well. Plates were shaken for 1 minute then luminescence was measured by Envision plate reader […]. Signal of each well were normalized by no-compound control and no-cell control. IC50 was calculated using Graphic Pad PRISM software.

SNU-389 cells = assay: Antiproliferation assay SNU-389 (Assay 7); assay type: cell-based; conditions: 72 h, read-out: Antiproli SNU-389 IC50
In short: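 IC50 values reflect growth relative to a day 0 baseline (CI) and DMSO vehicle (C0). Viable cells were quantified by CellTiter-Glo luminescence after 72 h treatment at 37 °C.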

DMS-114 cells = assay: Antiproliferation assay DMS-114 (Assay 7); assay type: cell-based; conditions: Homo sapiens, read-out: Antiproli DM-S114 IC50 median
Description: Assessment of the Anti-Proliferative Effect of Compounds in Different Cell Lines
The impact of compounds on the proliferation of different cell lines was assessed using the CellTiter-Glo® Luminescent Cell Viability reagent from Promega (G7573).
In parallel, cells were plated in a reference (day 0) plate for time zero determination. Cells were incubated in a humidified incubator at 37° C. overnight.
Rim wells were excluded. The cells were incubated for 72 h hours in a humidified incubator at 37° C. The day 0 plate was measured by adding 30 μL/well of CTG solution (CellTiter-Glo® Luminescent Cell Viability reagent, Promega G7573) to time zero wells in the reference plate followed by a 10 minutes incubation and luminescence reading at 0.1 ms. using the PHERAstar FS microplate reader (BMG Labtech).
After 72 h incubation, the treated plates were measured in the same way as the day 0 plate mentioned above. The Bella DRC Master Sheet was used to calculate IC50s, with CI=day 0 values and C0=DMSO control values.

IC50 (SNU-389 cells; CellTiter-Glo) | SMILES | Kd (MCL-1) | koff (MCL-1) | kon (MCL-1) | IC50 [1] | IC50 (SNU-389 cells) | IC50 (DMS-114 cells; DMS-114, 72 h) | IC50 (DMS-114 cells; DMS-114 cells, 72 h, CellTiter-Glo)
 | Cc1c2c(nn1C)C(CCN1CCOCC1)OCCCCn1c(C(=O)O)c(CCCOc3cccc4cc(F)ccc34)c3ccc(Cl)c-2c31 (single isomer, unassigned; enantiomer 1) [Example 17, 4-chloro-7-{3-[(6-fluoronaphthalen-1-yl)oxy]propyl}-2,3-dimethyl-15-[2-(morpholin-4-yl)ethyl]-2,10,11,12,13,15-hexahydropyrazolo[4′,3′:9,10][1,6]oxazacycloundecino[8,7,6-hi]indole-8-carboxylic Acid—N-ethylethanamine (Enantiomer 1)] | 0.77 nM | 0.015 s⁻¹ | 2e+07 M⁻¹ s⁻¹ | 35.7 nM |  |  | 
 | CCC1OCCCCn2c(C(=O)O)c(CCCOc3cccc4ccccc34)c3ccc(Cl)c(c32)-c2c1nn(C)c2C (single isomer, unassigned; enantiomer 1) [Example 29, (+)-4-chloro-15-ethyl-2,3-dimethyl-7-{3-[(naphthalen-1-yl)oxy]propyl}-2,10,11,12,13,15-hexahydropyrazolo[4′,3′:9,10][1,6]oxazacycloundecino[8,7,6-hi]indole-8-carboxylic Acid—N-ethylethanamine Salt (Enantiomer 1)] | 8.3 nM | 0.014 s⁻¹ | 1.7e+06 M⁻¹ s⁻¹ | 1060 nM |  |  | 
 | Cc1c2c(nn1C)C(CCO)OCCCCn1c(C(=O)O)c(CCCOc3cccc4ccccc34)c3ccc(Cl)c-2c31 (single isomer, unassigned; enantiomer 1) [Example 31, (+)-4-chloro-15-(2-hydroxyethyl)-2,3-dimethyl-7-{3-[(naphthalen-1-yl)oxy]propyl}-2,10,11,12,13,15-hexahydropyrazolo[4′,3′:9,10][1,6]oxazacycloundecino[8,7,6-hi]indole-8-carboxylic Acid (Enantiomer 1)] | 1.8 nM | 0.008 s⁻¹ | 4.4e+06 M⁻¹ s⁻¹ | 481 nM |  |  | 
 | CCc1c2c(nn1C)C(CCOC)OCCCCn1c(C(=O)O)c(CCCOc3cccc4cc(F)ccc34)c3ccc(Cl)c-2c31 (single isomer, unassigned; enantiomer 1) [Example 42, (+)-4-chloro-3-ethyl-7-{3-[(6-fluoronaphthalen-1-yl)oxy]propyl}-15-(2-methoxyethyl)-2-methyl-2,10,11,12,13,15-hexahydropyrazolo[4′,3′:9,10][1,6]oxazacycloundecino[8,7,6-hi]indole-8-carboxylic Acid—N-ethylethanamine Salt (Enantiomer 1)] | 2.8 nM | 0.0032 s⁻¹ | 1.2e+06 M⁻¹ s⁻¹ | 45.1 nM | 270 nM | 156 nM | 
350 nM | CCc1c2c(nn1C)C(CCO)OCCCCn1c(C(=O)O)c(CCCOc3cccc4cc(F)ccc34)c3ccc(Cl)c-2c31 (single isomer, unassigned; enantiomer 1) [Example 45, (+)-4-chloro-3-ethyl-7-{3-[(6-fluoronaphthalen-1-yl)oxy]propyl}-15-(2-hydroxyethyl)-2-methyl-2,10,11,12,13,15-hexahydropyrazolo[4′,3′:9,10][1,6]oxazacycloundecino[8,7,6-hi]indole-8-carboxylic Acid (Enantiomer 1)] | 2.3 nM | 0.0068 s⁻¹ | 3e+06 M⁻¹ s⁻¹ | 155 nM |  |  | 298 nM
 | CCc1c2c(nn1C)C(CCN1CCOCC1)OCCCCn1c(C(=O)O)c(CCCOc3cccc4cc(F)ccc34)c3ccc(F)c-2c31 (single isomer, unassigned; enantiomer 2) [Example 51, (−)-3-ethyl-4-fluoro-7-{3-[(6-fluoronaphthalen-1-yl)oxy]propyl}-2-methyl-15-[2-(morpholin-4-yl)ethyl]-2,10,11,12,13,15-hexahydropyrazolo[4′,3′:9,10][1,6]oxazacycloundecino[8,7,6-hi]indole-8-carboxylic Acid (Enantiomer 2)] |  |  |  | 12000 nM |  |  | 
